This note sets out measurements from ChEMBL document CHEMBL1129457, “Indole inhibitors of human nonpancreatic secretory phospholipase A2. 1. Indole-3-acetamides” (J Med Chem, 1996).

What is called IC50 is the point on the concentration scale where inhibition reaches its midpoint. A lower IC50 goes with higher potency. By inhibition is commonly meant the change of the read-out against control, counted positive when it falls. A low value points to a response near the control.

In experiment [1] the target is T1, Phospholipase A2, membrane associated (Homo sapiens, UniProt P14555).
T1 sequence (P14555 whole entry): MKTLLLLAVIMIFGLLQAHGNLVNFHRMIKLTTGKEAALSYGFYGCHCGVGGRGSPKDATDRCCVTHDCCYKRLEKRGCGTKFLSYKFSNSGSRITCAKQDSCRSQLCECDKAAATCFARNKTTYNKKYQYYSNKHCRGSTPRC
The experiment is described as follows: Inhibition of Human Nonpancreatic Secretory Phospholipase A2 through Chromogenic assay. Type of experiment: functional.

The target of experiment [2] is T2, Phospholipase A2, membrane associated (Homo sapiens) (UniProt P14555).
T2 sequence (whole entry): T1 sequence (P14555 whole entry)
The experiment is described as follows: Inhibition of PLA2 induced contraction of GP lung tissue (Guinea pig) (n=4). The note with it: Cavia porcellus, target entry is the homologue from another species. Type of experiment: functional, tissue-based.

The species entered for another experiment is Cavia porcellus. Kind of experiment: Inhibition of AA (arachidonic acid) - induced contraction of GP lung tissue (n=4). Type of experiment: functional.
In experiment [3] the target is T2, Phospholipase A2, membrane associated (Homo sapiens). Kind of experiment: Inhibition of Human Nonpancreatic Secretory PLA2 through Chromogenic assay at 47ug/mL. Type of experiment: functional.
For experiment [4] the target is unchanged. Kind of experiment: Mole fraction as PLA2 IC50 concentration divided by total lipid concentration (1230 uM). The experiment is classed as functional.

In experiment [1], `COc1ccc2c(c1)c(CC(=O)NN)c(C1CC1)n2Cc1ccccc1` returned an IC50 of 0.39 µM.
The molecule `COc1cccc2c1c(CC(=O)NN)c(C)n2Cc1cccc(Cl)c1` showed an IC50 in experiment [1] of 0.23 µM.
`COc1ccc2c(c1)c(CC(=O)NN)c(C)n2Cc1cccc(-c2ccccc2)c1`: the Kb in experiment [2] was determined as 22.6 µM.
Molecule `CCCc1c(CC(=O)NN)c2cc(OC)ccc2n1Cc1ccccc1` showed a Kb in experiment [2] of 27.1 µM. In the experiment filed under Cavia porcellus, this molecule yielded an ED50 of more than 30 µM.
`Cc1c(CC(N)=O)c2cc([N+](=O)[O-])ccc2n1Cc1ccccc1` showed a half-inhibitory concentration (IC50) in experiment [1] of 1.51 µM. That is a single-digit micromolar value.
`Cc1c(CC(=O)NN)c2cc(C(=O)O)ccc2n1Cc1cccc(Cl)c1`: in experiment [2], the Kb is 1.39 µM. This molecule displayed an ED50 in the experiment listed under Cavia porcellus of more than 30 µM.
`COc1ccc2c(c1)c(CC(=O)NN)c(C)n2C(c1ccccc1)c1ccccc1` yielded an IC50 in experiment [1] of 40.2 µM.
Regarding `COc1ccc2c(c1)c(CC(N)=O)c(C)n2CCCc1ccccc1`, in experiment [1], the IC50 stood at 11.1 µM.
As for `COc1ccc2c(c1)c(C(O)C(N)=O)c(C)n2Cc1ccccc1` (stereo unspecified), in experiment [1], 20.1 µM corresponded to half-maximal inhibition (IC50). This IC50 is about 1.8-fold higher than that of the molecule before.
In experiment [1], `COc1ccc2c(c1)c(CC(N)=O)c(C)n2Cc1cccc(Cl)c1` gave an IC50 of 0.91 µM. Against the preceding molecule, the IC50 is about 22-fold lower.
Same read-out and setting: in the case of `CCC(C(=O)NN)c1c(C)n(Cc2ccccc2)c2ccc(OC)cc12` (stereo unspecified) it was 24.2 µM.
For `CCc1c(CC(=O)NN)c2cc(OC)ccc2n1Cc1ccccc1`, in experiment [2], the Kb turned out to be 2.04 µM. Further, the ED50 in the experiment filed under Cavia porcellus is more than 30 µM.
Consider `COc1ccc2c(c1)c(CC(=O)NN)cn2Cc1ccccc1`, for which the Kb in experiment [2] stood at 5.64 µM. Moreover, the ED50 in the experiment listed under Cavia porcellus was more than 10 µM. Further, half-maximal inhibition in experiment [1] (IC50) was put at 4.9 µM.
For the molecule `COc1ccc2c(C(=O)C(N)=O)c(C)n(Cc3ccccc3)c2c1`, it took 1.77 µM to reach half-maximal inhibition in experiment [1] (IC50).
As to `COc1ccc2c(c1)c(CC(=O)NN)c(C)n2Cc1cccc(Cl)c1`, the Kb in experiment [2] came out at 1.13 µM. The ED50 in the experiment listed under Cavia porcellus was more than 30 µM. In addition, 1.36 µM corresponded to half-maximal inhibition in experiment [1] (IC50).
For `COc1ccc2c(c1)c(CC(=O)NN)c(Br)n2Cc1ccccc1`, the Kb in experiment [2] was 0.76 µM. Also, the ED50 in the experiment filed under Cavia porcellus was 7.32 µM.
With `COc1ccc2c(c1)c(CC#N)c(C)n2Cc1ccccc1`, in experiment [3], the inhibition was found to be 45%. The Mole fraction result in experiment [4] is “Mole fraction as PLA2 IC50 concentration divided by total lipid concentration (1230 uM)”.
On to `CCCCCCC(C(=O)NN)c1c(C)n(Cc2ccccc2)c2ccc(OC)cc12` (stereo unspecified), for which the IC50 in experiment [1] is 101 µM.
In experiment [1], `CCc1c(C(=O)C(N)=O)c2c(OC)cccc2n1Cc1ccccc1` registered an IC50 of 0.55 µM.
In experiment [1], `COc1ccc2c(c1)c(CC(=N)S)c(C)n2Cc1ccccc1` showed an IC50 of 74.1 µM.
Take `CCc1c(CC(=O)NN)c2cc(OC)ccc2n1Cc1ccccc1-c1ccccc1`: the Kb in experiment [2] was 30.1 µM. Further, in the experiment filed under Cavia porcellus, the ED50 was more than 30 µM. The molecule further showed an IC50 in experiment [1] of 2.35 µM.
In turn, `CCc1c(CC(N)=O)c2cc(OC)ccc2n1Cc1ccccc1` yielded a Kb in experiment [2] of 5.91 µM. The molecule further showed an ED50 in the experiment filed under Cavia porcellus of more than 30 µM.
In experiment [1], `COc1ccc2c(c1)c(CC(=O)NN)c(SC)n2Cc1ccccc1` gave an IC50 of 0.62 µM.
With `CCc1c(C(=O)C(N)=O)c2c([N+](=O)[O-])cccc2n1Cc1ccccc1`, in experiment [1], inhibition was half-maximal at 37.8 µM (IC50).
The same measure, in the same setting: the value for `COc1ccc2c(c1)c(CCC(N)=O)c(C)n2Cc1ccccc1` was 28.1 µM; that for `CCCCCCCCCCn1c(C)c(CC(=O)NN)c2cc(OC)ccc21` was 9.43 µM.
`COc1ccc2c(c1)c(CC(=O)NN)c(C)n2Cc1cccc(N)c1` returned an IC50 in experiment [1] of 4.32 µM.
In experiment [1], `COc1cccc2c1c(CC(=O)NN)c(C)n2Cc1ccccc1` had an IC50 of 0.55 µM.
Same read-out and setting: the value for `COc1cccc2c1c(CC(N)=O)c(C)n2Cc1cccc(Cl)c1` was 1.38 µM; that for `COc1ccc2c(c1)c(C(C)C(=O)NN)c(C)n2Cc1ccccc1` (stereo unspecified) was 32.6 µM; that for `COc1ccc2c(c1)c(CC(=N)N)c(C)n2Cc1ccccc1` was 64.7 µM.
`COc1ccc2c(c1)c(CC(=O)NN)c(C)n2Cc1ccccc1-c1ccccc1` yielded a Kb in experiment [2] of more than 10 µM. Besides, the ED50 in the experiment listed under Cavia porcellus was more than 10 µM.
In experiment [1], `CCc1c(CC(N)=O)c2c(OC)cccc2n1Cc1ccccc1` yielded an IC50 of 1.18 µM.
In turn, `COc1ccc2c(c1)c(Cc1nnn[nH]1)c(C)n2Cc1ccccc1` yielded an IC50 in experiment [1] of 84.7 µM. This IC50 is about 72-fold higher than that of the molecule before.
For the molecule `COc1ccc2c(c1)c(CC(N)=O)c(C)n2C(=O)c1ccccc1`, inhibition in experiment [1] was half-maximal at 7.21 µM (IC50).
For the molecule `COc1ccc2c(c1)c(CC(=O)NN)c(Cl)n2Cc1ccccc1`, the Kb in experiment [2] is 0.85 µM. The same molecule registered an ED50 in the experiment listed under Cavia porcellus of 9.37 µM.
For `COc1ccc2c(c1)c(C(=O)C(N)=O)c(C)n2Cc1ccccc1`, 1.23 µM corresponded to half-maximal inhibition in experiment [1] (IC50).
For `COc1ccc2c(C(O)C(N)=O)c(C)n(Cc3ccccc3)c2c1` (stereo unspecified), 121 µM corresponded to half-maximal inhibition in experiment [1] (IC50).
As for `Cc1c(CC(N)=O)c2cc(N)ccc2n1Cc1ccccc1`, the Kb in experiment [2] amounted to 1.98 µM. In the experiment filed under Cavia porcellus, this molecule showed an ED50 of 14.5 µM.
Turning to `CCCCCCCCCCn1c(C)c(CC(N)=O)c2cc(OC)ccc21`, it took 9.47 µM to reach half-maximal inhibition in experiment [1] (IC50).
In experiment [2], `COc1ccc2c(c1)c(CC(=O)NN)c(C)n2Cc1cccc(O)c1` registered a Kb of 5.96 µM. Moreover, the ED50 in the experiment listed under Cavia porcellus was more than 30 µM.
`CCc1c(C(O)C(N)=O)c2c(OC)cccc2n1Cc1ccccc1` (stereo unspecified): half-maximal inhibition in experiment [1] (IC50) was put at 53 µM.
`CNC(=O)Cc1c(C)n(Cc2ccccc2)c2ccc(OC)cc12`: in experiment [1], the IC50 stood at 142 µM.
Regarding `CONC(=O)Cc1c(C)n(Cc2ccccc2)c2ccc(OC)cc12`, the IC50 in experiment [1] was determined as 40 µM. Against the preceding molecule, the IC50 is about 3.5-fold lower.
On to `COC(=O)Cc1c(C)n(Cc2ccccc2)c2ccc(OC)cc12`, for which the IC50 in experiment [1] was found to be 116 µM.
Consider `CCc1c(C(=O)C(N)=O)c2cc(OC)ccc2n1Cc1ccccc1`, for which, in experiment [1], the IC50 was 2.56 µM.
`COc1ccc2c(c1)c(CC(=O)NN)c(C)n2Cc1cccc(OCc2ccccc2)c1` returned a Kb in experiment [2] of 3.86 µM. Besides, the ED50 in the experiment filed under Cavia porcellus is more than 30 µM.
`COc1ccc2c(c1)c(CC(N)=O)c(SC)n2Cc1ccccc1` showed a Kb in experiment [2] of 7.93 µM. In addition, the IC50 in experiment [1] stood at 0.45 µM.
In the case of `Cc1c(CC(=O)NN)c2ccccc2n1-c1ccccc1`, the concentration for half-maximal inhibition (IC50) in experiment [1] turned out to be 38.2 µM.
Turning to `COc1ccc2c(c1)c(CC(N)=O)c(C)n2CC1CCCCC1`, the Kb in experiment [2] amounted to 22.5 µM. Also, the ED50 in the experiment listed under Cavia porcellus worked out at 25.65 µM.
Take `COc1ccc2c(c1)c(CC(=O)O)c(C)n2Cc1ccccc1`: in experiment [1], the IC50 was determined as 13.6 µM.
In the case of `COc1cccc(Cn2c(C)c(CC(=O)NN)c3cc(OC)ccc32)c1`, the IC50 in experiment [1] came to 2.12 µM.
